In ChEMBL document CHEMBL1795329, “QSPR modeling of octanol/water partition coefficient for vitamins by optimal descriptors calculated with SMILES” (Eur J Med Chem, 2008) one finds logP data, which are given here for eleven molecules.

Assay in the first data set: not given
To be noted: octanol/water.
Usually logP stands for a log measure of how a compound divides between an organic and an aqueous phase. In turn, `C=C1CC[C@H](O)C/C1=C/C=C1\CCC[C@]2(C)[C@@H]([C@H](C)CCCC(C)C)CC[C@@H]12` [CHOLECALCIFEROL] showed a logP of 10.24.
`C=C1CC[C@H](O)C/C1=C/C=C1\CCC[C@]2(C)[C@@H]([C@H](C)/C=C/[C@H](C)C(C)C)CC[C@@H]12` [ERGOCALCIFEROL] had a logP of 10.44.
`ClC(Cl)C(Cl)(Cl)Cl` [PENTACHLOROETHANE]: the logP is given as 3.627.
In turn, `CC1=C(C/C=C(\C)CCC[C@H](C)CCC[C@H](C)CCCC(C)C)C(=O)c2ccccc2C1=O` [PHYTONADIONE] came in with a logP of 11.71.
As to `C[C@@H]1O[C@@H](OC[C@H]2O[C@@H](Oc3c(-c4ccc(O)c(O)c4)oc4cc(O)cc(O)c4c3=O)[C@H](O)[C@@H](O)[C@@H]2O)[C@H](O)[C@H](O)[C@H]1O` [RUTIN], the logP is -2.02.

A further data set can be described thus: physchem. Particulars: octanol/water.
As for `FC(Cl)(Cl)Cl` [TRICHLOROMONOFLUOROMETHANE], the logP came out at 2.44.
On the same count and under the same terms, in the case of `CC1=C(/C=C/C(C)=C/C=C/C(C)=C/CO)C(C)(C)CC=C1` [VITAMIN A2] it was 7.41; in that of `NC1=C2NCN=C2N=CN1` [VITAMIN B4], -0.09; in that of `Cc1cc(O)c2ccccc2c1O` [VITAMIN K3H2], 2.76.
Still for that read-out and setting: in the case of `CCC(C)(C)c1ccccc1` [tert-Amylbenzene] it was 4.65; in that of `CC(C)(C)c1ccccc1` [tert-Butylbenzene], 4.12.
